Structures can show the parent of a compound that is named as a salt.
Each compound was assayed against MYT1 protein (Homo sapiens (Human), UniProt Q99640) (assay: Test for binding to ATP binding site of MYT1 (Kinase Tracer 178 / Eu-Anti-GST antibody TR-FRET)). Settings: ATP binding site of MYT1, 30 minutes at room temperature.
MYT1 protein, sequence (Q99640 whole entry): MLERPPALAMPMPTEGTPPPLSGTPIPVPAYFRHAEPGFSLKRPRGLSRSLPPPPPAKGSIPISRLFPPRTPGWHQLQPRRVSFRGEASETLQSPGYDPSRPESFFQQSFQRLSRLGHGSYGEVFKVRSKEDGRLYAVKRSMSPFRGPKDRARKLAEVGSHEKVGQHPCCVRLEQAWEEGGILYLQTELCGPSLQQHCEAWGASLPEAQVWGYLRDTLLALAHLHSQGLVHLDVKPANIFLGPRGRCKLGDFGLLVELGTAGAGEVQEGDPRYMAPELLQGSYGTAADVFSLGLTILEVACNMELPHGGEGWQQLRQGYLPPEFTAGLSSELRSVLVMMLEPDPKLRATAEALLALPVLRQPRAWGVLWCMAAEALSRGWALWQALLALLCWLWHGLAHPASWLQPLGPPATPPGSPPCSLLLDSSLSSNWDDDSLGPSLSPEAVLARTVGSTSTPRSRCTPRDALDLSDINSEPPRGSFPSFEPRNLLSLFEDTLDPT

Row | IC50 | Structure (SMILES)
1 | 3.3 nM | CCN1CCC(c2cc3c(-c4ccc(F)c5[nH]ncc45)c(N)c(=O)[nH]c3c3ncccc23)CC1 [Compound D26, 3-Amino-6-(1-ethylpiperidin-4-yl)-4-(7-fluoro-1H-indazol-4-yl)-1H-1,10-phenanthrolin-2-one]
2 | 12 nM | Nc1c(-c2ccc(F)c3[nH]ncc23)c2cc(Br)c3cnccc3c2[nH]c1=O [Compound P3, 3-Amino-6-bromo-4-(7-fluoro-1H-indazol-4-yl)-1H-1,8-phenanthrolin-2-one]
3 | 7.8 nM | Nc1c(-c2ccc(F)c3[nH]ncc23)c2cc(C3CCN(C4CCOCC4)CC3)c3cccnc3c2[nH]c1=O [Compound D25, 3-Amino-4-(7-fluoro-1H-indazol-4-yl)-6-[1-(oxan-4-yl)piperidin-4-yl]-1H-1,10-phenanthrolin-2-one]
4 | 2.1 nM | CN1CCN(c2cc3c(-c4ccc(F)c5[nH]ncc45)c(N)c(=O)[nH]c3c3ncccc23)CC1 [Compound D6, 3-Amino-4-(7-fluoro-1H-indazol-4-yl)-6-(4-methylpiperazin-1-yl)-1H-1,10-phenanthrolin-2-one]
5 | 5.7 nM | CC(C)N1CC(c2cc3c(-c4ccc(F)c5[nH]ncc45)c(N)c(=O)[nH]c3c3ncccc23)C1 [Compound D29, 3-Amino-4-(7-fluoro-1H-indazol-4-yl)-6-(1-propan-2-ylazetidin-3-yl)-1H-1,10-phenanthrolin-2-one]
6 | 33 nM | Cn1ncc2c(Br)cc3c(-c4ccc(F)c5[nH]ncc45)c(N)c(=O)[nH]c3c21 [Compound I1, 7-Amino-4-bromo-6-(7-fluoro-1H-indazol-4-yl)-1-methyl-9H-pyrazolo[4,3-h]quinolin-8-one]
7 | 6.9 nM | Nc1c(-c2ccc(F)c3[nH]ncc23)c2cc(C3CCN(C4CCC4)CC3)c3cccnc3c2[nH]c1=O [Compound D24, 3-Amino-6-(1-cyclobutylpiperidin-4-yl)-4-(7-fluoro-1H-indazol-4-yl)-1H-1,10-phenanthrolin-2-one]
8 | 0.85 nM | Nc1c(-c2ccc(F)c3[nH]ncc23)c2cc(O[C@H]3C[C@@H](F)C3)c3nccnc3c2[nH]c1=O [Compound G17, 8-Amino-5-((1s,3s)-3-fluorocyclobutyl)oxy-7-(7-fluoro-1H-indazol-4-yl)-10H-pyrido[2,3-f]quinoxalin-9-one]
9 | 3.9 nM | Nc1c(-c2cccc(O)c2)c2ccc3cnccc3c2[nH]c1=O [Compound P5, 3-Amino-4-(3-hydroxyphenyl)-1H-1,8-phenanthrolin-2-one; hydrobromide]
10 | 4.9 nM | COc1ccc2c(n1)c(OC)cc1c(-c3ccc(F)c4[nH]ncc34)c(N)c(=O)[nH]c12 [Compound T1, 3-Amino-4-(7-fluoro-1H-indazol-4-yl)-6,8-dimethoxy-1H-1,7-phenanthrolin-2-one]

The remaining lines, values behind:

Row | Structure (SMILES) | IC50
11 | Nc1c(-c2ccc(F)c3[nH]ncc23)c2cc(OC(F)(F)F)c3ncccc3c2[nH]c1=O [Compound C188, 3-Amino-4-(7-fluoro-1H-indazol-4-yl)-6-(trifluoromethoxy)-1H-1,7-phenanthrolin-2-one] | 4.1 nM
12 | Nc1c(-c2ccc(F)c3[nH]ncc23)c2cc(OC3CC4(COC4)C3)c3ncccc3c2[nH]c1=O [Compound C41, 3-Amino-4-(7-fluoro-1H-indazol-4-yl)-6-(2-oxaspiro[3,3]heptan-6-yloxy)-1H-1,7-one] | 6.1 nM
13 | Nc1c(-c2ccc(F)c3[nH]ncc23)c2cc(C3CCC(F)(F)C3)c3ncccc3c2[nH]c1=O (centres unmarked) [Compound C162, 3-Amino-6-(3,3-difluorocyclopentyl)-4-(7-fluoro-1H-indazol-4-yl)-1H-1,7-phenanthrolin-2-one] | 12 nM
14 | Nc1c(-c2ccc(F)c3[nH]ncc23)c2cc(OCC3CC(F)(F)C3)c3ncccc3c2[nH]c1=O [Compound C39, 3-Amino-6-[(3,3-difluorocyclobutyl)methoxy]-4-(7-fluoro-1H-indazol-4-yl)-1H-1,7-phenanthrolin-2-one] | 6.5 nM
15 | Nc1c(-c2ccc(Cl)c3[nH]ncc23)c2cc(Cl)cc(Cl)c2[nH]c1=O [Compound A20, 3-Amino-6,8-dichloro-4-(7-chloro-1H-indazol-4-yl)-1H-quinolin-2-one] | 12 nM
16 | Nc1c(-c2ccc(Cl)c3[nH]ncc23)c2cc(OC3CCC3)c(Cl)cc2[nH]c1=O [Compound A10, 3-Amino-7-chloro-4-(7-chloro-1H-indazol-4-yl)-6-cyclobutyloxy-1H-quinolin-2-one] | 4.3 nM
17 | N#C[C@H]1C[C@H](c2cc3c(-c4ccc(F)c5[nH]ncc45)c(N)c(=O)[nH]c3c3cccnc32)C1 [Compound C179, (1r,3r)-3-[3-Amino-4-(7-fluoro-1H-indazol-4-yl)-2-oxo-1H-1,7-phenanthrolin-6-yl]cyclobutane-1-carbonitrile] | 0.84 nM
18 | Nc1c(-c2ccc(F)c3[nH]ncc23)c2cc(O)c3ncccc3c2[nH]c1=O [Compound C3, 3-Amino-4-(7-fluoro-1H-indazol-4-yl)-6-hydroxy-1H-1,7-phenanthrolin-2-one] | 3.6 nM
19 | Nc1c(-c2ccc(F)c3[nH]ncc23)c2cc(C3CC3)c3ccc(Cl)cc3c2[nH]c1=O [Compound B10, 3-Amino-9-chloro-6-cyclopropyl-4-(7-fluoro-1H-indazol-4-yl)-1H-benzo[h]quinolin-2-one] | 36 nM
20 | Nc1c(-c2ccc(F)c3[nH]ncc23)c2cc(OCC34CC(C3)C4)c3ncccc3c2[nH]c1=O [Compound C49, 3-Amino-6-(1-bicyclo[1.1.1]pentanylmethoxy)-4-(7-fluoro-1H-indazol-4-yl)-1H-1,7-phenanthrolin-2-one] | 1.7 nM
21 | Nc1c(-c2ccc(F)c3[nH]ncc23)c2cc(CCCF)c3ncccc3c2[nH]c1=O [Compound C160, 3-Amino-4-(7-fluoro-1H-indazol-4-yl)-6-(3-fluoropropyl)-1H-1,7-phenanthrolin-2-one] | 2.5 nM
22 | N#CC1(COc2cc3c(-c4ccc(F)c5[nH]ncc45)c(N)c(=O)[nH]c3c3cccnc23)CCC1 [Compound C55, 1-[[3-Amino-4-(7-fluoro-1H-indazol-4-yl)-2-oxo-1H-1,7-phenanthrolin-6-yl]oxymethyl]cyclobutane-1-carbonitrile] | 0.92 nM
23 | CC(C)N1CCC(c2ccc3[nH]c(=O)c(N)c(-c4ccc(Cl)c5[nH]ncc45)c3c2)CC1 [Compound A34, 3-Amino-4-(7-chloro-1H-indazol-4-yl)-6-(1-propan-2-ylpiperidin-4-yl)-1H-quinolin-2-one] | 26 nM
24 | CP(C)(=O)c1cc2c(-c3ccc(F)c4[nH]ncc34)c(N)c(=O)[nH]c2c2cccnc12 [Compound C110, 3-Amino-6-dimethylphosphoryl-4-(7-fluoro-1H-indazol-4-yl)-1H-1,7-phenanthrolin-2-one] | 14 nM
25 | Nc1c(-c2ccc(F)c3[nH]ncc23)c2cc(NS(=O)(=O)C3CC3)c3ncccc3c2[nH]c1=O [Compound C130, N-[3-amino-4-(7-fluoro-1H-indazol-4-yl)-2-oxo-1H-1,7-phenanthrolin-6-yl]cyclopropanesulfonamide] | 3.7 nM
26 | Nc1c(-c2ccc3nc[nH]c3c2)c2cc(Cl)ccc2[nH]c1=O [Compound A48, 3-Amino-4-(3H-benzimidazol-5-yl)-6-chloro-1H-quinolin-2-one] | 5300 nM
27 | Nc1c(-c2ccc(F)c3[nH]ncc23)c2cc(C3CC4(CCC4)C3)c3ncccc3c2[nH]c1=O [Compound C169, 3-Amino-4-(7-fluoro-1H-indazol-4-yl)-6-spiro[3,3]heptan-2-yl-1H-1,7-phenanthrolin-2-one] | 86 nM
28 | Cc1cc2c(-c3cccc(O)c3)c(N)c(=O)[nH]c2c2ccccc12 [Compound B6, 3-Amino-4-(3-hydroxyphenyl)-6-methyl-1H-benzo[h]quinolin-2-one] | 7 nM
29 | Nc1c(-c2ccc(F)c3[nH]ncc23)c2cc(OC[C@@H]3CCCO3)c3ncccc3c2[nH]c1=O [Compound C37, 3-Amino-4-(7-fluoro-1H-indazol-4-yl)-6-[[(2S)-oxolan-2-yl]methoxy]-1H-1,7-phenanthrolin-2-one] | 3.9 nM
30 | Nc1c(-c2ccc(Cl)c3[nH]ncc23)c2cc(Cl)cc(C3CC3)c2[nH]c1=O [Compound A24, 3-Amino-6-chloro-4-(7-chloro-1H-indazol-4-yl)-8-cyclopropyl-1H-quinolin-2-one] | 110 nM
31 | COc1cccc(-c2c(N)c(=O)[nH]c3c2ccc2ccccc23)c1 [Compound B1, 3-Amino-4-(3-methoxyphenyl)-1H-benzo[h]quinolin-2-one] | 5600 nM
32 | Nc1c(-c2ccc(Cl)c3[nH]ncc23)c2ccc(Cl)cc2[nH]c1=O [Compound A40, 3-Amino-7-chloro-4-(7-chloro-1H-indazol-4-yl)-1H-quinolin-2-one] | 8.6 nM
33 | CN1CC(c2ccc3[nH]c(=O)c(N)c(-c4ccc(Cl)c5[nH]ncc45)c3c2)C1 [Compound A39, 3-Amino-4-(7-chloro-1H-indazol-4-yl)-6-(1-methylazetidin-3-yl)-1H-quinolin-2-one] | 23 nM
34 | Nc1c(-c2ccc(F)c3[nH]ncc23)c2cc(OCC3(F)COC3)c3ncccc3c2[nH]c1=O [Compound C40, 3-Amino-4-(7-fluoro-1H-indazol-4-yl)-6-[(3-fluorooxetan-3-yl)methoxy]-1H-1,7-phenanthrolin-2-one] | 4 nM
35 | Cc1cc2ncccc2c2[nH]c(=O)c(N)c(-c3cc(F)c(F)c4[nH]ncc34)c12 [Compound C218, 3-Amino-4-(6,7-difluoro-1H-indazol-4-yl)-5-methyl-1H-1,7-phenanthrolin-2-one] | 0.43 nM
36 | CC(F)(F)COc1cc2c(-c3ccc(F)c4[nH]ncc34)c(N)c(=O)[nH]c2c2cccnc12 [Compound C25, 3-Amino-6-(2,2-difluoropropoxy)-4-(7-fluoro-1H-indazol-4-yl)-1H-1,7-phenanthrolin-2-one] | 2.8 nM
37 | Cn1cc(-c2cc3c(-c4cc(F)c(F)c5[nH]ncc45)c(N)c(=O)[nH]c3c3cccnc23)cn1 [Compound C207, 3-Amino-4-(6,7-difluoro-1H-indazol-4-yl)-6-(1-methylpyrazol-4-yl)-1H-1,7-phenanthrolin-2-one] | 1 nM
38 | Nc1c(-c2ccc(F)c3[nH]ncc23)c2cc(OCC3CC3)c3ncccc3c2[nH]c1=O [Compound C11, 3-Amino-6-(cyclopropylmethoxy)-4-(7-fluoro-1H-indazol-4-yl)-1H-1,7-phenanthrolin-2-one] | 1.4 nM

— patent publication US20260062412A1, “NITROGEN-CONTAINING HETEROCYCLIC COMPOUND HAVING MYT1 INHIBITORY ACTIVITY” (CHUGAI SEIYAKU KABUSHIKI KAISHA, priority 2023, published 2026)
